Measurements from the NIST ThermoML archive (doi:10.1021/je100078w).

Tests used:
[1] = wn = mass fraction of the nth substance listed; details: 101 kPa, Liquid
[2] = 101.33 kPa, Liquid

OCCN(CCO)CCO [triethanolamine] + CCCCn1cc[n+](C)c1.F[B-](F)(F)F
[1]
Details | mass density, 303.15 K [kg/m3] | mass density, 313.15 K [kg/m3] | mass density, 323.15 K [kg/m3] | mass density, 333.15 K [kg/m3] | mass density, 343.15 K [kg/m3] | viscosity, 303.15 K [mPa·s] | viscosity, 313.15 K [mPa·s] | viscosity, 323.15 K [mPa·s] | viscosity, 333.15 K [mPa·s] | viscosity, 343.15 K [mPa·s]
w1 = 0.1998 | 1175.8 | 1168.63 | 1161.5 | 1154.44 | 1147.42 | 57.94 | 35.89 | 24.02 | 17.13 | 12.82
w1 = 0.3987 | 1161.1 | 1154.41 | 1146.93 | 1139.88 | 1132.87 | 69.54 | 39.71 | 25.08 | 17.08 | 12.32
w1 = 0.5005 | 1150.08 | 1142.89 | 1135.48 | 1128.12 | 1120.99 | 86.62 | 47.22 | 28.82 | 19.11 | 13.48
w1 = 0.6 | 1146.42 | 1139.61 | 1132.76 | 1125.89 | 1119 | 116.5 | 60.67 | 36.1 | 23.35 | 16.14
w1 = 0.7999 | 1129.56 | 1123.21 | 1116.73 | 1110.16 | 1103.54 | 186.3 | 99.43 | 54.02 | 33.63 | 22.33
w1 = 1 | 1114.43 | 1108.34 | 1102.23 | 1095.96 | 1089.6 | 398.2 | 195.9 | 103.6 | 60.81 | 37.94

CCCCn1cc[n+](C)c1.F[B-](F)(F)F [1-butyl-3-methylimidazolium tetrafluoroborate] + O
[1], w1 = 0.2998
Details | mass density [kg/m3] | viscosity [mPa·s]
303.15 K | 1045.35 | 1.292
313.15 K | 1039.84 | 1.046
323.15 K | 1033.76 | 0.8731
333.15 K | 1027.74 | 0.7473
343.15 K | 1021.18 | 0.6549

OCCN(CCO)CCO [triethanolamine] + O
[1], w1 = 0.3
Details | mass density [kg/m3] | viscosity [mPa·s]
303.15 K | 1042.75 | 2.354
313.15 K | 1037.93 | 1.799
323.15 K | 1032.21 | 1.425
333.15 K | 1023.74 | 1.172
343.15 K | 1011.68 | 0.9591

C[NH+](CCO)CCO.C[NH+](CCO)CCO.C[NH+](CCO)CCO.O=P([O-])([O-])[O-] [2-hydroxy-N-(2-hydroxyethyl)-N-methylethanaminium phosphate]
[2]
Details | mass density [kg/m3] | viscosity [mPa·s]
303.15 K | 1215.95 | –
313.15 K | 1208.49 | 2483
323.15 K | 1200.88 | 1426
333.15 K | 1193.23 | 822.5
343.15 K | 1185.52 | 385.4

CN(CCO)CCO.CN(CCO)CCO.O=S(=O)(O)O [2,2'-(methylimino)diethanol sulfate (2:1)]
[2]
Details | mass density [kg/m3] | viscosity [mPa·s]
303.15 K | 1282.49 | –
313.15 K | 1276.83 | 1858
323.15 K | 1271.25 | 990.8
333.15 K | 1265.72 | 571.2
343.15 K | 1260.24 | 350.4

NCCO [2-aminoethan-1-ol] + O
[1], w1 = 0.3002
Details | mass density [kg/m3] | viscosity [mPa·s]
303.15 K | 1013.02 | 2.093
313.15 K | 1007.98 | 1.603
323.15 K | 1003.42 | 1.271
333.15 K | 997.157 | 1.037
343.15 K | 989.924 | 0.8681

F[B-](F)(F)F.[NH3+]CCO [2-hydroxyethanaminium tetrafluoroborate]
[2]
Details | mass density [kg/m3]
303.15 K | 1490.57
313.15 K | 1482.62
323.15 K | 1474.94
333.15 K | 1467.85
343.15 K | 1464.59

[2], Concentric cylinders viscometry
Details | viscosity [mPa·s]
303.15 K | 59.39
313.15 K | 48.68
333.15 K | 32.85
343.15 K | 27.84

C[NH+](CCO)CCO.[Cl-] [2-hydroxy-N-(2-hydroxyethyl)-N-methylethanaminium chloride] + O
[1]
Details | mass density, 303.15 K [kg/m3] | mass density, 313.15 K [kg/m3] | mass density, 323.15 K [kg/m3] | mass density, 333.15 K [kg/m3] | mass density, 343.15 K [kg/m3] | viscosity, 303.15 K [mPa·s] | viscosity, 313.15 K [mPa·s] | viscosity, 323.15 K [mPa·s] | viscosity, 333.15 K [mPa·s] | viscosity, 343.15 K [mPa·s]
w1 = 0.3001 | – | – | – | – | – | 1.539 | 1.265 | 1.067 | 0.8862 | 0.7911
w1 = 0.3006 | 1058.44 | 1053.89 | 1049.23 | 1043.31 | 1037.05 | – | – | – | – | –

CCCCn1cc[n+](C)c1.F[B-](F)(F)F [1-butyl-3-methylimidazolium tetrafluoroborate] + OCCN(CCO)CCO
[1], w2 = 0
Details | mass density [kg/m3] | viscosity [mPa·s]
303.15 K | 1195.7 | 68.9
313.15 K | 1188.62 | 44.73
323.15 K | 1181.59 | 30.81
333.15 K | 1174.6 | 22.28
343.15 K | 1167.67 | 16.75
